Data reported in patent publication US20250188078A1, “SMALL MOLECULE INHIBITORS OF THE CRL4 UBIQUITIN LIGASE” (Cornell University, priority 2022, published 2025).
Like-named read-outs stand apart in the source and are kept apart here.

Columns and labels:
[1] = system: CUL4A^high MDA-MB-468 breast cancer cells; assay: Cell killing in CUL4-high MDA-MB-468 cells (CellTiter Glo); assay type: cell-based; settings: Homo sapiens, 8 days treatment
Method in brief: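 Cells seeded, treated after 24 h with DMSO or compound (0 to 20 μM). Medium and compound replaced every 48 h over 8 days. Viability measured by CellTiter-Glo luminescence; EC50 (50% killing) from log(inhibitor) vs response nonlinear fit.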

[2] = molecular target: T1, DDB1-BPB (Homo sapiens (Human), UniProt Q16531); assay: Microscale Thermophoresis (MST) binding to DDB1-BPB; settings: labeled DDB1-BPB, 25° C.
T1 sequence (Q16531 403-706): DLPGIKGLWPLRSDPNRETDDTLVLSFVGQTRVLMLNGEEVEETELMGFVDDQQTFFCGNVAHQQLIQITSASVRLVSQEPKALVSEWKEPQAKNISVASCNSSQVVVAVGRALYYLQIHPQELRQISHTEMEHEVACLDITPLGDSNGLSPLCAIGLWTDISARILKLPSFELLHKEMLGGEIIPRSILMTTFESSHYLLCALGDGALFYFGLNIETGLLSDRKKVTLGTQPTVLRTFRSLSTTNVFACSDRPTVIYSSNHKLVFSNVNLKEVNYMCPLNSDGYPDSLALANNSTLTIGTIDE
Description: Kd represents dissociation constant, which measures the affinity of small molecule binding to the scaffold DDB1-BPB by Microscale Thermophoresis (MST) (see Table 1, column 9). MST experiments were performed on a Monolith NT 115 system (Nano Temper Technologies, Munich, Germany) using 100% LED and 60% IR-laser power (https://physiology.case.edu/media/eq manuals/eq_manual_nano-temper_mst_starting_guide.pdf, hereby incorporated by reference in its entirety for all purposes). The labeling of DDB1-BPB ([…]) was performed in labeling buffer with NHS-Red reactive dye (30 μM) (Nanotemper), which reacts efficiently with the primary amines of the proteins to form a stable dye protein conjugates. The labeling reaction was carried out at RT. A 16-point serial dilution (1:1) was prepared for compound at the final concentration ranged from 200 µM to 3 nM in PBS containing 0.05% tween. The samples were filled into Premium capillaries and measurements were conducted at 25° C. An equation implemented by the software MO-S002 MO Affinity Analysis, provided by the manufacturer, was used for fitting normalized fluorescence values at different concentrations of ligands.

[3] = system: CUL4A^low T47D breast cancer cells; assay: Cell killing in CUL4-low T47D cells (CellTiter Glo); assay type: cell-based; settings: Homo sapiens, 192 h, 8 days treatment
Description: EC50 indicates compound concentration can cause 50% cell killing in CUL4° ^w T47D cells (see Table 1, column 7). CUL4A^low T47D breast cancer cells were seeded in 96 well plate. […] Change fresh medium and compounds every 48 hours. After 8 days treatment, cell viability was examined by using CellTiter Glo kit (Promega #7570) following the manufacturer's guidelines (https://www.promega.com/-/media/files/resources/protocols/technical-bulletins/0/celltiter-glo-luminescent-cell-viability-assay-protocol.pdf?rev=0d95c232094b41daa06d0c110d1d916f&sc_lang=en, hereby incorporated by reference in its entirety for all purposes). EC50 concentration was calculated by Prism 8 XY analysis nonlinear regression (curve fit-Log(inhibitor) vs response). EC50 indicates cell killing potential in CUL4 low T47D cell line and the EC50 difference between CUL4^high and CUL4^low cells indicates the small molecule cause specific cell killing.
CUL4A^high MDA-MB-468, CUL4^low (T47D), and MCF7 breast cancer cells were seeded in 96 well plates separately. […] Replace with fresh medium and compounds every 48 hours. After 8 days treatment, cell viability was examined by CellTiter Glo kit (Promega #7570). First, transfer the appropriate volume (10 ml for Cat. #G7570) of CellTiter-Glo® Buffer into the amber bottle containing CellTiter-Glo® Substrate to reconstitute the lyophilized enzyme/substrate mixture. This forms the CellTiter-Glo® Reagent. Second, add CellTiter-Glo® Reagent in an equal volume (100 μl per well for 96-well plates) to all wells. Mix contents for 2 minutes on an orbital shaker to induce cell lysis. Incubate at room temperature for 15 minutes to stabilize luminescent signal. Then record luminescence. EC50 concentration was calculated by Prism 8 XY analysis nonlinear regression (curve fit-Log(inhibitor) vs response).

[4] = molecular target: CUL4A-DDB1-BPB interaction (Homo sapiens (Human), UniProt Q16531); assay: AlphaLISA in vitro binding assay, CUL4A and DDB1-BPB binding; settings: inhibition of CUL4A and DDB1-BPB binding
Sequence of CUL4A-DDB1-BPB interaction (Q16531 403-706): as above
Method in brief: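 Compound disruption of CUL4A binding to DDB1-BPB measured by AlphaLISA/AlphaScreen bead proximity in 384-well format. IC50 from nonlinear log(inhibitor)-vs-response curve fit.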

[5] = system: MCF7 breast cancer cells; assay: Cell killing in MCF7 cells (CellTiter Glo); assay type: cell-based; settings: Homo sapiens, MCF7, 192 h; Table 3, 0 to 20 μM compound, 8 days treatment
Description: CUL4A^high MDA-MB-468, CUL4^low (T47D), and MCF7 breast cancer cells were seeded in 96 well plates separately. Cells were treated with DMSO, or from 0 to 20 μM compound respectively. Replace with fresh medium and compounds every 48 hours. After 8 days treatment, cell viability was examined by CellTiter Glo kit (Promega #7570). First, transfer the appropriate volume (10 ml for Cat. #G7570) of CellTiter-Glo® Buffer into the amber bottle containing CellTiter-Glo® Substrate to reconstitute the lyophilized enzyme/substrate mixture. This forms the CellTiter-Glo® Reagent. Second, add CellTiter-Glo® Reagent in an equal volume (100 μl per well for 96-well plates) to all wells. Mix contents for 2 minutes on an orbital shaker to induce cell lysis. Incubate at room temperature for 15 minutes to stabilize luminescent signal. Then record luminescence. EC50 concentration was calculated by Prism 8 XY analysis nonlinear regression (curve fit-Log(inhibitor) vs response).

[6] = molecular target: T1, DDB1-BPB; assay: Surface Plasmon Resonance (SPR) binding to DDB1-BPB; settings: DDB1-BPB immobilized
Description: Kd represents dissociation constant, which measures the affinity of small molecule binding to the scaffold DDB1-BPB by Surface Plasmon Resonance (SPR) (https://www.bio-rad.com/webroot/web/pdf/lsr/literature/Bulletin_6414.pdf, hereby incorporated by reference in its entirety) (see Table 1, column 8). To assess the interaction between DDB1-BPB and compounds, a multi-parametric SPR instrument (BioRad ProteON XPR360) was used. DDB1-BPB was immobilized onto the GLH sensor surface in a variety of ways as follows: flow channels were activated in parallel with 1/20 diluted EDC/SNHS. DDB1-BPB was diluted to 0.1 mg/mL in sodium acetate pH 4.5 and directly coupled onto channel for 4 min. Excess reactive esters were blocked with a 5-min injection of 1 M ethanolamine. Mean immobilization levels were 17,000 RU with <2% variation along a strip. One channel was left unmodified to provide an additional reference surface. Next, the binding kinetics of compounds on surfaces was determined in a single injection using a “one-shot” kinetic mode. Typically, compound was prepared as a twofold serial dilution (0, 3.125, 6.25, 12.5, 25, 50 μM) and injected for 60 s at […]. Dissociation was monitored for 800 s. Surfaces were regenerated with multiple 30-s pulses of 60 mM phosphoric acid so that the experiment could be reproduced. All resulting sensor grams were collected and analyzed using the ProteOn manager software.

[7] = Dynamic light scattering (DLS) solubility assay; assay type: physicochemical; settings: normalized intensity ratio of 25 μM compound vs DMSO, in PBS
Method in brief: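 Compounds diluted from DMSO into PBS at final concentrations of 200 μM to 0.78 μM, in triplicate, and aggregation measured by light scattering intensity. A ratio above 2 scores insoluble (−), below 2 soluble (+), and around 2 (+/−).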

[8] = system: UV-induced CUL4-dependent DDB2 degradation in MEF-F-DDB2 cells; assay: Cell-based assay for inhibition of UV-induced CUL4-dependent DDB2 degradation; set-up: key: (+) means that the normalized DDB2/α-tubulin ratio is higher in the compound treated sample than DMSO treated sample; (−) means that no change happens between compound treated sample with control sample; settings: DDB2/α-tubulin by Western blot
Method in brief: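 MEF cells expressing Flag-DDB2, in serum-free medium, treated with DMSO or compound, UV-irradiated (254 nm, 0.2 W/m^2), then harvested. Flag-DDB2 measured by western blot against α-tubulin; (+) denotes normalized DDB2/α-tubulin above DMSO, (−) no change.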

[9] = 192 h, MDA-MB-468 cells, read-out: EC50 CUL4-High Cells (cell killing)
[10] = T47D cells, read-out: EC50 CUL4-Low Cells (cell killing)

For CN(c1ccc(-c2nc(C(=O)O)cc3c2[nH]c2cc(F)ccc23)cc1)S(=O)(=O)c1ccccc1 [PA1-3, 7-fluoro-1-(4-(N-methylphenylsulfonamido)phenyl)-9H-pyrido[3,4-b]indole-3-carboxylic acid], the EC50 [1, 9] was 0.48 µM, the EC50 ([1]; MDA-MB-468, 192 h, Table 3, 0 to 20 μM compound, read-out: EC50 OF cell killing, MDA-MB-468) was 0.49 µM and the Kd [2] was 0.72 µM. The EC50 [3, 10] was 3.42 µM, the EC50 ([3]; T47D, Table 3, 0 to 20 μM compound, read-out: EC50 OF cell killing, T47D) was 3.42 µM and the IC50 [4] was 0.53 µM. It also gave an EC50 [5] of 3.36 µM.
For CS(=O)(=O)c1ccc(-c2nc(C(=O)O)cc3c2[nH]c2ccccc23)cc1 [PA35, 1-(4-methylsulfonylphenyl)-9H-pyrido[3,4-b]indole-3-carboxylic acid], the EC50 [1, 9] was greater than 100 µM, the EC50 [3, 10] was greater than 100 µM and the IC50 [4] was 1.06 ± 0.51 µM. For the same compound, the Kd [6] was 5.58 µM.
For COC(=O)c1cccc(-c2nc(C(=O)OC(C)(C)C)cc3c2[nH]c2ccccc23)c1 [PA43], the “Solubility (DLS Assay)” value [7] was “-(insoluble)”, the EC50 [1, 9] was 28.3 µM and the EC50 [3, 10] was 48.2 µM. For the same compound, the “AlphaLisa IC50” value [4] was “Neg” and the “Kd (SPR)” value [6] was “no binding”.
With O=C(O)c1cc2c([nH]c3ccccc32)c(-c2ccc(NCc3ccc(F)cc3)cc2)n1 [PA68, 1-[4-[(4-fluorophenyl)methylamino]phenyl]-9H-pyrido[3,4-b]indole-3-carboxylic acid] the EC50 [1, 9] was 9.12 µM, the “Kd (MST)” value [2] was “Insoluble” and the EC50 [3, 10] was 11 µM. It also gave an IC50 [4] of 2.33 ± 0.86 µM and a Kd [6] of 13.2 µM.
For CS(=O)(=O)c1ccc(-c2nc(C(=O)O)cc3c2[nH]c2ccc(O)cc23)cc1 [PA73], the “Solubility (DLS Assay)” value [7] was “+/−”, the EC50 [1, 9] was greater than 100 µM and the EC50 [3, 10] was greater than 100 µM. The IC50 [4] was 0.73 ± 0.35 µM and the Kd [6] was 7.34 µM.
With CS(=O)(=O)N(Cc1ccccc1)c1ccc(-c2nc(C(=O)O)cc3c2[nH]c2ccccc23)cc1 [PA76, 1-[4-[benzyl(methylsulfonyl)amino]phenyl]-9H-pyrido[3,4-b]indole-3-carboxylic acid] the EC50 [1, 9] was 28.9 µM, the EC50 [3, 10] was greater than 100 µM and the IC50 [4] was 1.52 ± 1.13 µM. The Kd [6] was 4.54 µM and the “Degradation Inhibition (inhibition of UV-induced DDB2 degradation)” value [8] was “+”.
